SMILES strings stand for the structures.

Results on two compounds are retold here after patent publication EP4703363A1, “SALT FORM AND CRYSTAL FORM OF THIENOPYRIMIDINE COMPOUND, AND PREPARATION METHOD THEREFOR AND USE THEREOF” (Shandong Luye Pharmaceutical Co., Ltd., priority 2023, dated 2024).

Data set [1] is described as follows: In vivo pharmacokinetics in SD rats. The following applies: for F: absolute bioavailability; for AUC(0-t) / C0 / MRT last / half-life / Cmax / Tmax: male, rat, plasma. The protocol:
(§1) Rats: SD rats, male, 200-250 g
(§2) Instruments: water purification instrument, Millipore; electronic balance, METTLER TOLEDO; highspeed benchtop centrifuge, Thermo; water bath thermostatic oscillator, Shanghai Yiheng Technical Co., Ltd.; vortex oscillator, Thermo; LC-MS/MS, AB SCIEX.
(§3) Method: Solutions of all compounds were prepared using DMSO and 20% solutol. In the pharmacokinetic experiment, the administration dose for the intravenous group (i.v) was 1 mg/kg, and the administration dose for the intragastric group (i.g) was 12 mg/kg; each group contained 3 rats. Blood was collected from the orbit of the rats before administration (0 h) and at set time points after administration. In the tissue distribution experimental group, the rats were intragastrically dosed at 12 mg/kg. […] The […] was placed in a heparinized EP tube and centrifuged at 13,500 rpm for 10 min to isolate the plasma. The pituitary was homogenized with water in a certain ratio. The plasma and pituitary homogenates were pre-treated and then analyzed by LC-MS/MS to determine the concentrations of the test substances in the plasma and the pituitary. The plasma drug concentration data were processed in a non-compartmental model using WinNonlin™ Version 6.3 (Pharsight, Mountain View, CA) pharmacokinetic software. […] Table 16-1. Pharmacokinetic parameters in SD rats after intravenous administration

Data set [2] can be described thus: Caco-2 monolayer two-way permeability and efflux. In kind it is in vitro ADME. The note with it: human. The protocol:
Instruments: water purification instrument, ELGA LabWate; biosafety cabinet, NUAIRE; thermostatic CO2 incubator, Thermo; microplate reader, PerkinElmer; LC-MS/MS, AB SCIEX.
Method: A Caco-2 monolayer cell model was used to determine the two-way permeability of the test substance and evaluate whether the test substance was transported via efflux by a transporter. In the experiment, Caco-2 cells were seeded into a 96-well cell culture plate and cultured for 28 consecutive days before a transport assay. The test substance was administered on two sides. After 120 min of incubation, samples of apical end A, basal end B, and the cell lysate were collected, and the content of the test substance in the samples was quantitatively determined using a liquid chromatography-tandem mass spectrometry (LC/MS/MS) method. The apparent permeability coefficients (Papp) in the direction from the apical end to the basal end (A-B) and in the direction from the basal end to the apical end (B-A) and the efflux ratio were calculated based on the concentration of the test substance. Table 15. The permeability of the compound of formula I in Caco-2 cells
A general note: Passage across Caco-2 layers is used to estimate intestinal permeability.

Data set [3] in a line: Pituitary tissue distribution in SD rats. In kind it is in vivo. The following applies: intragastric 12 mg/kg; for Kp at 1 h / Kp at 4 h / Kp at 12 h: male, rat, pituitary/plasma, oral. How it is done:
as §1, §2, §3

Data set [4] addresses T1, human GnRHR (Homo sapiens, UniProt P30968).
T1 sequence (P30968 1-328): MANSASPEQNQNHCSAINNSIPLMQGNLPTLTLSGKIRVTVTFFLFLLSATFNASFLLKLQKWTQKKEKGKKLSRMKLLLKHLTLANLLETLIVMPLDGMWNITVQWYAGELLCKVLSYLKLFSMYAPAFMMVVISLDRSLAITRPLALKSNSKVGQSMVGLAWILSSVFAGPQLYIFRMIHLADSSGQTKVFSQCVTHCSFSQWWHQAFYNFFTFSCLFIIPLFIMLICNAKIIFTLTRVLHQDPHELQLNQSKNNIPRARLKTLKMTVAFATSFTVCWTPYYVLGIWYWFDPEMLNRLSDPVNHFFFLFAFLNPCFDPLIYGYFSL
Kind of data set: In vitro binding screening ([125I]-[D-Trp6]-LH-RH displacement, Chem-1 cell membrane). On the set-up: host or cells: Chem-1 cells (membrane preparation). How it is done: [D-Trp6]-LH-RH, PerkinElmer; [D-Trp6]-LH-RH, Abcam.
Equipment: MicroBeta2 LumiJET system, PerkinElmer.
1 µM [D-Trp6]-LH-RH was used in the non-specific binding assay. The cell membrane was collected by filtration under vacuum and washed before liquid scintillation. The binding IC50 and IC90 of the compound were calculated using Prism. Table 13. The in vitro binding activity of the compound of the present disclosure to human GnRHR

The target in data set [5] is T1, human GnRHR. Kind of data set: In vitro antagonistic activity screening (FLIPR fluorescence, Leuprolide acetate stimulation). In kind it is cell-based. The note with it: HEK293 cells stably expressing human GnRHR. The protocol: Cell: HEK293 cells stably expressing human GnRHR (WuXi AppTec (Shanghai) Co., Ltd.) Equipment: 384-well plate, Greiner; Vi-cell XR Cell Viability Analyzer, Beckman Coulter; incubator, Thermo.
Method: HEK293 cells stably expressing human GnRHR were seeded into a 384-well plate at a density of 20,000 cells/well. Fluo-4 DirectTM No-wash Loading Buffer (Invitrogen) was added to each well the next day, and then the plate was put back into an incubator, incubated at 37 °C for 50 min, and then incubated at room temperature for 10 min. […] Fluorescence was measured using a FLIPR Tetra high-throughput real-time fluorescence assay and analysis system. Then 10 µL of Leuprolide acetate was added, and fluorescence was measured. The IC50 and IC90 of the compound were calculated using Prism. Table 12. The in vitro antagonistic activity of the compound of formula I against human GnRHR

Data set [6] concerns the target T2, human hERG potassium channel (Homo sapiens, UniProt Q12809).
T2 construct: host or cells: CHO
Briefly: hERG test (QPatch automated patch clamp, CHO cells). In kind it is cell-based. The note with it: CHO cells stably expressing human hERG potassium channel. The protocol:
Cell: CHO cells stably expressing a human hERG potassium channel (WuXi AppTec (Shanghai) Co., Ltd.)
Reagents: physiological solution (PH = 7.4): 140 mM NaCl, 4 mM KCl, 2 mM CaCl2, 1 mM MgCl2, 5 mM glucose, 10 mM HEPES, osmolarity: about 298 mOsm; external solution (PH = 7.4): 80 mM NaCl, 4 mM KCl, 2 mM CaCl2, 1 mM MgCl2, 5 mM glucose, 60 mM NMDG, 10 mM HEPES, osmolarity: about 289 mOsm; and internal solution (PH = 7.4): 10 mM NaCl, 10 mM KCl, 110 mM KF, 10 mM HEPES, EGTA: […], osmolarity: about 280 mOsm.
Equipment: QPatch high-throughput automated patch clamp system, Sophion.
Method: CHO cells stably expressing a human hERG potassium channel were digested with TrypLE and resuspended in the physiological solution for later use. The single-cell high-impedance sealing and whole-cell mode formation processes were automatically completed by Qpatch. The cells were clamped at a voltage of -80 mV, then a voltage of -50 mV was applied for 80 ms to subtract (current) leakage, and a voltage of +20 mV was applied for 4800 ms to open the hERG channel. The voltage was then reduced to -50 mV and maintained for 5000 ms. This process was used for data collection and analysis. Finally, the voltage was returned to the clamping voltage (-80 mV, 1000 ms). This process was repeated every 20,000 ms. […]

[7] abbreviates: intragastric administration group.

T2 sequence (Q12809 whole entry): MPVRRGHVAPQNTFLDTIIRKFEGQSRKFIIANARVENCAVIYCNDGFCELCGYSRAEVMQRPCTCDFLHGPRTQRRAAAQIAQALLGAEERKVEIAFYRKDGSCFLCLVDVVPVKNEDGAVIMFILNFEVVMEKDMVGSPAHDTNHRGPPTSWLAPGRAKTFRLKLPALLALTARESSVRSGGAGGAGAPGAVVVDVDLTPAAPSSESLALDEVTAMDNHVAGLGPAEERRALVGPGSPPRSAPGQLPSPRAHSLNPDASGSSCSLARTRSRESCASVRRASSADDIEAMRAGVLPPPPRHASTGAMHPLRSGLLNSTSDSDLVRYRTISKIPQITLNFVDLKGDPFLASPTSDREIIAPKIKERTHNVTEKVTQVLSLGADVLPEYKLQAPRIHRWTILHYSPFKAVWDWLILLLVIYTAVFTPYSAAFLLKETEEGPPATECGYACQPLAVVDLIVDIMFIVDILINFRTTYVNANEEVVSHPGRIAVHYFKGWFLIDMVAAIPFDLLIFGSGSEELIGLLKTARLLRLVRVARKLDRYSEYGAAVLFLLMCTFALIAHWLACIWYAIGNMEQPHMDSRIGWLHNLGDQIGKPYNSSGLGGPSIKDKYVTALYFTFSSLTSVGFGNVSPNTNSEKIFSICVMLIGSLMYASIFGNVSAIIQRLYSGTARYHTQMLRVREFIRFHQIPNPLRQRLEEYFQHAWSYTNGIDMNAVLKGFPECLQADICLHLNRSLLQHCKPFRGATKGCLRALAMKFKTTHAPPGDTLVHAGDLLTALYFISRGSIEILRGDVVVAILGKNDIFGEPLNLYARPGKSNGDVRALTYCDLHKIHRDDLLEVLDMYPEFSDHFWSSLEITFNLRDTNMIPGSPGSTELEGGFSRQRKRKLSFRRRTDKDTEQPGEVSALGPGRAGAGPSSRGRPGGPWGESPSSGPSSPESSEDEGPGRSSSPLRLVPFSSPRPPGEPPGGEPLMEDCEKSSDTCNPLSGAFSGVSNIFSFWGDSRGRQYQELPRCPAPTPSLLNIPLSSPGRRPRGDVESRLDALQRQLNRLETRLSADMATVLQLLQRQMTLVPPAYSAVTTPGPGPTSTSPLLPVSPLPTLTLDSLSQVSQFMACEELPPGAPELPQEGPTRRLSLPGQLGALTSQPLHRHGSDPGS

`CCNC(=O)Nc1ccc(-c2sc3c(c2CN(C)C)c(=O)n(-c2ccc(OC)nn2)c(=O)n3Cc2c(F)cccc2F)cn1` [Formula I] registered a F in data set [1] (i.g 12 mg/kg) of 19.9%. For the same compound, in data set [1] (setting [7]), the “AUClast relative to Relugolix” value stood at 2.45 times and the “Cmax relative to Relugolix” value came out at 3.63 times. Moreover, in data set [1] (intravenous, i.v 1 mg/kg), the AUC(0-t) is 150 ± 12 ng·h/mL, the C0 is 68.8 ± 21.7 ng/mL, the MRT last was determined as 5.41 ± 0.47 h and the half-life is 6.39 ± 1.08 h. In data set [1] (oral, i.g 12 mg/kg), the area under the curve AUC(0-t) stood at 357 ± 85 ng·h/mL, the Cmax turned out to be 78.5 ± 36.4 ng/mL, the mean residence time MRT last is 6.13 ± 1.1 h and the Tmax was 0.38 ± 0.14 h. Moreover, the half-life in data set [1] (oral, i.g 12 mg/kg) is 4.31 ± 1.81 h. In data set [2] (Caco-2), the efflux ratio at 120 min stood at 294. The compound further had a Papp A→B at 120 min in data set [2] (Caco-2, 120 min incubation, A to B) of 0.0142 ×10⁻⁶ cm/s. Moreover, the Papp B→A at 120 min in data set [2] (Caco-2, 120 min incubation, B to A) was found to be 4.19 ×10⁻⁶ cm/s. Moreover, in data set [3] (1 h), the Pituitary was determined as 2250±474, the Plasma was found to be 39.5±14.0, the “concentration in the pituitary relative to Relugolix” value came to 2.38 times and the Kp at 1 h was 56.9. In data set [3] (4 h), the Pituitary was determined as 1841±636, the Plasma turned out to be 22.8±2.5, the “concentration in the pituitary relative to Relugolix” value turned out to be 1.48 times and the Kp at 4 h turned out to be 80.8. In addition, in data set [3] (12 h), the Pituitary is reported as 1254±494, the Plasma is 9.70±3.10, the “concentration in the pituitary relative to Relugolix” value came out at 2.46 times and the Kp at 12 h was determined as 129. Further, at human GnRHR [4], the IC50 worked out at 0.64 nM and the IC90 was found to be 2.67 nM. For the same compound, at human GnRHR [5] (read-out: Functional IC50), the IC50 is 1.01 nM. Also, the IC90 at human GnRHR [5] (read-out: Functional IC90) stood at 7.55 nM. The compound also displayed an IC50 in data set [6] of 25800 nM.
`CONC(=O)Nc1ccc(-c2sc3c(c2CN(C)C)c(=O)n(-c2ccc(OC)nn2)c(=O)n3Cc2c(F)cccc2F)cc1` [Relugolix, reference compound]: in data set [1] (i.g 12 mg/kg), the T1/2 stood at 3.88 ± 0.57 h and the F was determined as 5.74%. For the same compound, in data set [1] (intravenous, i.v 1 mg/kg), the AUC(0-t) is 212 ± 61 ng·h/mL, the C0 amounted to 339 ± 36 ng/mL and the MRT last turned out to be 2.01 ± 0.92 h. For the same compound, in data set [1] (oral, i.g 12 mg/kg), the AUC(0-t) stood at 146 ± 37 ng·h/mL, the Cmax amounted to 21.6 ± 8.3 ng/mL, the MRT last was determined as 5.68 ± 0.17 h and the Tmax came out at 0.33 ± 0.14 h. In data set [3] (1 h), this compound yielded a Kp at 1 h of 42.4. This compound also showed a Kp at 4 h in data set [3] (4 h) of 76.3. In addition, in data set [3] (12 h), the Kp at 12 h came out at 161.

One may read the AUC(0-t) as exposure summed from dosing to a finite time, without extrapolation to infinity. By MRT last is commonly meant a mean duration of stay, worked out from the concentration-time curve. The term half-life denotes the time needed for the level to fall by half in the phase considered. Low values mean rapid decline, high ones slow decline. One may read the Cmax as the peak of the concentration-time curve. In general, Tmax refers to the time from dosing to the highest level. The term efflux ratio denotes a quotient of directional permeabilities that is used to spot active efflux. The Papp A→B is how fast a substance crosses the layer from the apical side. A word on the Papp B→A: it is the apparent permeability from the basolateral to the apical side of a cell layer. Broadly, the Kp is tissue or fluid exposure divided by exposure in the circulation. Broadly, the IC50 is the concentration at which inhibition is half-maximal. Usually IC90 stands for the concentration needed for an effect of 90%.
